This is an account of results in US20080199897A1, “CLASS II HISTONE DEACETYLASE WHOLE CELL ENZYME ASSAY” (MethylGene Inc., priority 2007, published 2008).

pIC50: −log10 of the molar value. Structures can show the parent of a compound that is named as a salt. Where two headings read alike, the source gives them in different places. Bounds are passed on as bounds.

In series [1] the test system is CD-1 mouse whole blood cells. The series is described as follows: deacetylase activity in serum from mouse whole blood contacted with substrate. Conditions: 300 uM substrate. Format: cell-based. On the procedure:
CD-1 Mouse blood was collected in heparin tubes and cells were counted by Coulter counter (Beckman Coulter, Ville St. Laurent, Quebec). The amount of whole blood containing 1.6×10E6 white blood cells was aliquoted and the volume was brought up to 200 ul with RPMI (+10% FBS). Boc-Ac-Lys-AMC was added to a final concentration of 300 uM. After various amounts of time, the mix was spun (400×g for 5 min), and 50 ul of the supernatant (serum) was transferred to a 96-well plate. The amount of deacetylated product Boc-Lys-AMC present in the supernatant was detected by adding an equal volume of the developer mix and reading after 15 minutes incubation. […] Thus total HDAC activity in primary cells could be easily monitored in bodily fluid where animals were contacted with HDAC substrates ex vivo.

The next series relates to 293T. Kind of series: whole cell deacetylase assay with Boc-Lys(Ac)-AMC in 293T cells. Conditions: read-out: whole cell deacetylase IC50, 293T.
A further series has as its system Du145. Kind of series: whole cell deacetylase assay with Boc-Lys(Ac)-AMC in Du145 cells.
The subject of the next series is Jurkat T. The series is described as follows: whole cell deacetylase assay with Boc-Lys(Ac)-AMC in Jurkat T cells. The settings on record: read-out: whole cell deacetylase IC50, Jurkat T.
Another series relates to Panc-1. The series is described as follows: whole cell deacetylase assay with Boc-Lys(Ac)-AMC in Panc-1 cells. The settings on record: read-out: whole cell deacetylase IC50, Panc-1, pre-incubated with inhibitor 16 hours, Boc-Lys(Ac)-AMC substrate, mean of at least 2 experiments.
In the next series the test system is A549. The series is described as follows: whole cell deacetylase assay with Boc-Lys(Ac)-AMC in A549 cells.
The test system of another series is HCT116. The series is described as follows: whole cell deacetylase assay with Boc-Lys(Ac)-AMC in HCT116 cells.
The test system of series [2] is Class I and Class II HDACs. The series is described as follows: enzymatic reactivity of substrates for Class I and Class II HDACs. Format: biochemical. The settings on record: FIG. 12 legend. On the procedure:
(§1) A 30 mM stock of Boc-Lys(TFA)-AMC substrate was prepared in DMSO. 2 μl test compound in DMSO was diluted in 50 μl buffer (25 mM HEPES, pH 8.0, 137 mM NaCl, 2.7 mM KCl, 1 mM MgCl2, 0.1% BSA) and pre-incubated with Class II HDAC enzyme (30 μl of a final enzyme concentration of 0.1-0.2 nM) for 10 minutes at room temperature. Reaction was started by adding 18 μl Boc-Lys(TFA)-AMC substrate and incubating at 37° C. for 20-30 minutes. The reaction was stopped by adding 50 μl trypsin (1 mg/ml) and a known HDAC inhibitor. The plate was then incubated in the dark for 20 minutes at room temperature and read with Ex=360 nm, Em=470 nm, cutoff filter at 435 nm.
as §1, with “of Boc-Lys(thioAc)-AMC” for “of Boc-Lys(TFA)-AMC”, “in 15” for “in 50”, “enzyme (15” for “enzyme (30”, “of 50-500” for “of 0.1-0.2”, “μl Boc-Lys(thioAc)-AMC” for “μl Boc-Lys(TFA)-AMC”, “for 30-60” for “for 20-30”

In series [3] the test system is total HDAC activity in human white blood cells. Kind of series: ex vivo inhibition of whole cell HDAC activity in human white blood cells. Format: cell-based. Conditions: 16 hours incubation; Boc-Lys(ac)-AMC substrate. On the procedure:
Whole blood (human or mouse) was centrifuged at 2500 rpm for 10 minutes at ambient temperature in a Sorvall RT-7 centrifuge (Mandel Scientific Co., Guelph, Ontario). Plasma was removed and buffy coat was collected. Five volumes of Erythrocyte Lysis Buffer (EL) (Qiagen Canada Inc., Mississauga, Ontario) were added to buffy coat. Buffy coat was incubated on ice for 20 minutes before it was centrifuged at 400 g for 10 minutes at 4° C. Supernatant was removed and buffy coat was washed twice with EL buffer and re-centrifugation. Buffy coat was resuspended in RPMI media and cells (white blood cells) were counted with trypan blue exclusion. White blood cells were plated into 96-well dish in RPMI plus 10% fetal bovine serum. HDAC small molecule substrate Boc-Lys(ac)-AMC was added to cell suspensions and incubated with cells for 90 minutes at 37° C. before reaction was stopped, and fluorescence was developed and read.
Human white blood cells (buffy coat) isolated from human donors were plated into 96-well dish in RPMI plus 10% fetal bovine serum. HDAC inhibitors with a range of dilutions were incubated with cells for 16 hours at 37 C with 5% CO2. HDAC small molecule substrate Boc-Lys(ac)-AMC was added into cell suspensions and incubated with cells for 90 minutes before reaction was stopped, and fluorescence was developed and read.

In a further series the test system is 293T cells. Kind of series: intracellular and excellular deacetylase activity of 293T cells. Format: cell-based, human. Conditions: 300 uM substrate. On the procedure: Freshly trypsinized cells (293T) were dispensed into 96-well black Costar E1A/RIA plates (Corning Inc., Corning, N.Y.). Small molecule substrate Boc-Lys(Ac)-AMC (Bachem Biosciences Inc., King of Prussia, Philadelphia) were added to cell suspension with the final concentration of 300 uM. Cells were placed in 37° C. incubator with 5% CO2 for indicated time period. Supernatant was collected if necessary and subject to spinning. Reaction was stopped by adding a freshly prepared Fluor-de-Lys™ developer (Biomol, Plymouth Meeting, Philadelphia) with 1 uM TSA (Biomol, Plymouth Meeting, Philadelphia) in assay buffer (25 mM Tris, HCl pH8.0, 137 mM NaCl, 2.7 mM KCl, 1 mM MgCl2) plus 1% NP-40 into supernatant or cell pellets. Fluorescence was developed for 15 minutes at 37° C. and read in a fluorometer (SPECTRAMAX GeminiXS, Molecular Devices, Sunnylvale, Calif.) with an excitation wavelength at 360 nm, emission at 470 nm, and a cutoff of 435 nm. […] In contrast, when there is no substrates added, neither supernatant from cultured cells nor cell pellets have HDAC activity.

Protocol for A549: (§2) Freshly trypsinized cells were dispensed into 96-well black Costar E1A/RIA plates (Corning Inc., Corning, N.Y.). Small molecule substrate Boc-Lys(Ac)-AMC (Bachem Biosciences Inc., King of Prussia, Philadelphia) was added to cell suspension with the final concentration of 300 uM. Cells were placed in 37° C. incubator with 5% CO2 for 90 minutes. […] With the presence of 1% NP-40, both excellular and intracellular HDAC activity was measured in cultured cells altogether. Fluorescence was developed for 15 minutes at 37 C and read in a fluorometer (SPECTRAMAX GeminiXS, Molecular Devices, Sunnylvale, Calif.) with an excitation wavelength at 360 nm, emission at 470 nm, and a cutoff of 435 nm.
Protocol for Du145: as §2
Protocol for HCT116: as §2
Protocol for Jurkat T: as §2
Protocol for Panc-1: as §2

`Cc1cc(=O)oc2cc(NC(=O)[C@H](CCCCN)NC(=O)OC(C)(C)C)ccc12` [Boc-Lys-AMC]: the cell permeability result in series [1] is given as “permeable to come out from cells”.

For orientation: pIC50 means the IC50 on a negative log10 scale, so that one unit is a factor of ten. Regarding `Nc1ccccc1NC(=O)c1ccc(CNC(=O)OCc2cccnc2)cc1` [MS-275], the pIC50 was 5.70 in the series on 293T (293T cells, pre-incubated with inhibitor 16 hours, Boc-Lys(Ac)-AMC substrate, mean of at least 2 experiments); 6.52 in the series with Du145 (read-out: whole cell deacetylase IC50, Du145, Du145 cells, pre-incubated with inhibitor 16 hours, Boc-Lys(Ac)-AMC substrate, mean of at least 2 experiments); 6.52 in the series with Jurkat T (Jurkat T cells, pre-incubated with inhibitor 16 hours, Boc-Lys(Ac)-AMC substrate, mean of at least 2 experiments); 6.30 with Panc-1; 6.40 in the series with A549 (read-out: whole cell deacetylase IC50, A549, A549 cells, pre-incubated with inhibitor 16 hours, Boc-Lys(Ac)-AMC substrate, mean of at least 2 experiments); 5.52 in the series on HCT116 (read-out: whole cell deacetylase IC50, HCT116, HCT116 cells, pre-incubated with inhibitor 16 hours, Boc-Lys(Ac)-AMC substrate, mean of at least 2 experiments).

Turning to `CC(=S)NCCCCC(NC(=O)OC(C)(C)C)C(=O)Nc1ccc2c(C)cc(=O)oc2c1` (stereo not shown) [Boc-Lys(thioAc)-AMC], the “HDAC class specificity of substrate” value in series [2] is “specific for Class II HDACs”.

In the case of `O=C(/C=C/c1ccc(CN(CCO)CCc2c[nH]c3ccccc23)cc1)NO` [LAQ-824], the pIC50 with 293T (Homo sapiens, HEK-293T) is 7.40; in the series with Du145 (Homo sapiens, DU-145, read-out: whole cell deacetylase IC50, Du145), 7.30; in the series on Jurkat T (Homo sapiens, Jurkat), 7.40; in the series on A549 (Homo sapiens, A549, read-out: whole cell deacetylase IC50, A549), 7.70; in the series with HCT116 (Homo sapiens, HCT-116, read-out: whole cell deacetylase IC50, HCT116) it was 7.22. Besides, in series [3], the “inhibition of whole cell HDAC activity in human white blood cells” value is “dose-dependent inhibition”.

For the compound `CC(=O)NCCCC[C@H](NC(=O)OC(C)(C)C)C(=O)Nc1ccc2c(C)cc(=O)oc2c1` [Boc-Lys(Ac)-AMC], the cell permeability entry with 293T cells was “could permeablize into cells”; in series [1], “permeable to go inside cells”. The “HDAC class specificity of substrate” value in [2] is “specific for Class I HDACs, especially HDAC1, HDAC2 and HDAC6”.

For the compound `Cc1cc(=O)oc2cc(NC(=O)[C@H](CCCCNC(=O)C(F)(F)F)NC(=O)OC(C)(C)C)ccc12` [Boc-Lys(Tfa)-AMC], in series [2], the “HDAC class specificity of substrate” value is recorded as “specific for Class II HDACs”.

In the case of `CC(=O)O[C@H]1C(=O)[C@@]2(C)[C@H]([C@H](OC(=O)c3ccccc3)[C@]3(O)C[C@H](OC(=O)[C@H](O)[C@@H](NC(=O)c4ccccc4)c4ccccc4)C(C)=C1C3(C)C)[C@]1(OC(C)=O)CO[C@@H]1C[C@@H]2O` [Taxol], the pIC50 in the series with 293T (Homo sapiens, HEK-293T) is less than 4.30.
